Consider 30 compounds from patent US10995091B2 (Proximagen, LLC, priority 2010, dated 2021).

Structures can show the parent of a compound that is named as a salt.

T1 sequence (P61073 whole entry): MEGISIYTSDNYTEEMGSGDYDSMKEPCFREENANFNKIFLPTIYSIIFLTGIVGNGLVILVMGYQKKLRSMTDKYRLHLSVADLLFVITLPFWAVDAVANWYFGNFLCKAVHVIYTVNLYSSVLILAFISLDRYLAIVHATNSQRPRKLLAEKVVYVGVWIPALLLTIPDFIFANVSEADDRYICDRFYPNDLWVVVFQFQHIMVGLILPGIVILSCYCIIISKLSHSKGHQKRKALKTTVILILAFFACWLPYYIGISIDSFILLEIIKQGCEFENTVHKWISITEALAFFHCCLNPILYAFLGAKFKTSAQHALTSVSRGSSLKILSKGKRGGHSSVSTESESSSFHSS

The test has as its target T1, Human CXCR4 transfected HEK293 cells (Homo sapiens, UniProt P61073).
T1 construct: expressed in transfected cells; host or cells: HEK293
In words: CXCR4 functional calcium assay (calcium flux FLIPR, antagonism of SDF1 response). It counts as cell-based. The note with it: CXCR4 functional activity, antagonism of SDF1 (EC50 concentration), read-out: CXCR4 fKi. The procedure:
The functional activity of test compounds was routinely tested by measuring the ability of compounds to antagonize CXCR4 activity in a dose dependent manner, using a calcium flux Fluorescent Imaging Plate Reader FLIPR assay.
Human CXCR4 transfected HEK293 cells were cultured in Dulbecco's modified Eagles medium containing 4.5 g/L glucose, L-glutamine, pyruvate, 50 µg/mL Geneticin and 250 µg/mL hygromycin B and maintained at 37° C. in a humidified, 5% CO2 controlled atmosphere. Subcultivations were performed every 2-3 d.
At confluence the cells were lifted using Ca^2+ and Mg^2+ free PBS/0.02% (w/v) EDTA, spun at 1000 rpm for 3 min and resuspended at 2.5×10^5 cells/mL. Cells were plated into a 384 well, poly-d-lysine coated, black with clear bottomed plate (Becton Dickinson) at 7500 cells/well. The plates were incubated overnight at 37° C. under 5% CO2. On the day of the experiment the cells were washed with incubation Buffer (HBSS containing 2.5 mM probenecid, 0.1% w/v BSA and 10 mM HEPES, pH 7.4 at 37° C.). After washing, the cells were loaded with Fluo-4 AM dye (Molecular probes) at 2 µM containing 0.48 µg/mL pluronic acid for 60 min at 37° C. under 5% CO2. After thorough washing with incubation buffer the cells were preincubated for 10 min at 37° C. before use.
A combined agonist/antagonist protocol was used to measure changes in intracellular calcium concentration. Compound (antagonist) was added to the cell plate using a Fluorometric Imaging Plate Reader (FLIPR) (Molecular Devices, Sunnyvale, Calif., USA). Basal fluorescence was recorded every second for 10 seconds prior to compound addition (10 μl) and fluorescence recorded every second for 1 min then every 6 seconds for a further 1 min. SDF1[…] (EC50 concentration) was then added using the FLIPR and fluorescence recorded as described above. Curve-fitting and parameter estimation were carried out using GraphPad Prism 4.0 (GraphPad Software Inc., San Diego, Calif.).
(In general: A change in cytosolic calcium serves as a functional read-out for many receptors and channels.)
With `c1cc(NCCNCC2CCN(C3CCCC3)C2)nc(-c2ncc(C3CC3)[nH]2)c1` (stereo not drawn) [Example 229, [(1-Cyclopentylpyrrolidin-3-yl)methyl](2-{[6-(5-cyclopropyl-1H-imidazol-2-yl)pyridin-2-yl]amino}ethyl)amine], the Ki lay within 100 to 500 nM.
Consider `O=C(NCC1CC1)c1cccc(N2CCC(NCc3ccccc3Cl)CC2)n1` [Example 248, 6-(4-{[(2-Chlorophenyl)methyl]amino}piperidin-1-yl)-N-(cyclopropylmethyl)pyridine-2-carboxamide], for which the Ki is 500 to 1000 nM.
On to `CC(C)N1CCC(N2CCCN(c3cccc(-c4nc5ccc(C(F)(F)F)cc5[nH]4)n3)CC2)CC1` [Example 144, 2-(6-{4-[1-(Propan-2-yl)piperidin-4-yl]-1,4-diazepan-1-yl}pyridine-2-yl)-6-(trifluoromethyl)-1H-1,3-benzodiazole], for which the Ki was in the range of 100 to 500 nM.
As for `O=C(NCC1CC1)c1ccnc(N2CCCN(C3CCN(Cc4ccccc4Cl)CC3)CC2)c1` [Example 269, 2-(4-{1-[(2-chlorophenyl)methyl]piperidin-4-yl}-1,4-diazepan-1-yl)-N-(cyclopropylmethyl)pyridine-4-carboxamide], the figure is 100 to 500 nM; as for `O=C(NCC1CC1)c1cccc(N2CCCN(C3CCN(Cc4ccccc4Cl)CC3)CC2)n1` [Example 132, 6-(4-{1-[(2-Chlorophenyl)methyl]piperidin-4-yl}-1,4-diazepan-1-yl)-N-(cyclopropylmethyl)pyridine-2-carboxamide], 20 to 100 nM; as for `CC(C)N1CCC(N2CC3CCC2CN(c2cccc(C(=O)Nc4ccncc4)n2)C3)CC1` (stereo not drawn) [Example 197, 6-{6-[1-(Propan-2-yl)piperidin-4-yl]-3,6-diazabicyclo[3.2.2]nonan-3-yl}-N-(pyridin-4-yl)pyridine-2-carboxamide], 20 to 100 nM.
As for `COc1ccc2cc(-c3cccc(N4CCCN(C5CCN(C(C)C)CC5)CC4)n3)[nH]c2c1` [Example 104, 6-Methoxy-2-(6-{4-[1-(propan-2-yl)piperidin-4-yl]-1,4-diazepan-1-yl}pyridine-2-yl)-1H-indole], the figure is 500 to 1000 nM; as for `CCc1cnc(-c2cccc(N3CCCN(C4CCN([C@H](C)CC)CC4)CC3)n2)[nH]1` [Example 116, 1-{1-[(2R)-Butan-2-yl]piperidin-4-yl}-4-[6-(4-ethyl-1H-imidazol-2-yl)pyridine-2-yl]-1,4-diazepane], < 20 nM; as for `O=C(NCC1CC1)c1cccc(N2CCCN(CCCN3CCC(F)(F)C3)CC2)n1` [Example 253, N-(Cyclopropylmethyl)-6-{4-[3-(3,3-difluoropyrrolidin-1-yl)propyl]-1,4-diazepan-1-yl}pyridine-2-carboxamide], 500 to 1000 nM.
Consider `[2H]C1([2H])CCN(C2CCN(Cc3ccccc3Cl)CC2)CCN1c1cccc(C(=O)Nc2ccncc2)n1` [Example 180, 6-(4-{1-[(2-Chlorophenyl)methyl]piperidin-4-yl}-7,7-dihydrogenio-1,4-diazepan-1-yl)-N-(pyridin-4-yl)pyridine-2-carboxamide], for which the Ki was < 20 nM.
The figure for `COc1ccc(C(=O)NCC2CC2)nc1N1CCCN(C2CCN(Cc3ccccc3Cl)CC2)CC1` [Example 270, 6-(4-{1-[(2-Chlorophenyl)methyl]piperidin-4-yl}-1,4-diazepan-1-yl)-N-(cyclopropylmethyl)-5-methoxypyridine-2-carboxamide] is 100 to 500 nM; for `Cc1ccc(NC(=O)c2cccc(N3CCCN(C4CCN(C(C)C)CC4)CC3)n2)cc1` [Example 27, N-(4-Methylphenyl)-6-{4-[1-(propan-2-yl)piperidin-4-yl]-1,4-diazepan-1-yl}pyridine-2-carboxamide] it is 20 to 100 nM; for `Cc1cc(NC(=O)c2cccc(N3CCCN(C4CCN(Cc5ccccc5Cl)CC4)CC3)n2)ccn1` [Example 84, 6-(4-{1-[(2-Chlorophenyl)methyl]piperidin-4-yl}-1,4-diazepan-1-yl)-N-(2-methylpyridine-4-yl)pyridine-2-carboxamide] it is < 20 nM.
`CC(C)N1CCC(N2CCCN(c3cccc(C(=O)Nc4ccncc4)n3)CC2)C(F)C1` (stereo not drawn) [Example 210, 6-{4-[3-Fluoro-1-(propan-2-yl)piperidin-4-yl]-1,4-diazepan-1-yl}-N-(pyridin-4-yl)pyridine-2-carboxamide]: the Ki was < 20 nM.
The figure for `Cc1ccc(N2CCCN(C3CCN(Cc4ccccc4Cl)CC3)CC2)nc1` [Example 263, 1-{1-[(2-Chlorophenyl)methyl]piperidin-4-yl}-4-(5-methylpyridin-2-yl)-1,4-diazepane] is 100 to 500 nM.
For the compound `CC(C)N1CCC(N2CCCN(c3cccc(-c4nc5ccc(F)cc5[nH]4)n3)CC2)CC1` [Example 147, 6-Fluoro-2-(6-{4-[1-(propan-2-yl)piperidin-4-yl]-1,4-diazepan-1-yl}pyridine-2-yl)-1H-1,3-benzodiazole], the Ki was in the range of 20 to 100 nM.
The figure for `COCC(C)N1CCC(N2CCCN(c3cccc(C(=O)NCC4CC4)n3)CC2)CC1` (stereo not drawn) [Example 127, N-(Cyclopropylmethyl)-6-{4-[1-(1-methoxypropan-2-yl)piperidin-4-yl]-1,4-diazepan-1-yl}pyridine-2-carboxamide] is 20 to 100 nM.
`CC(C)N1CCC(N2CC3CCC2CN(c2cccc(C(=O)Nc4ccncc4)n2)C3)C(F)C1` (stereo not drawn) [Example 198]: the Ki is 100 to 500 nM.
As for `O=C(NCC1CC1)c1cccc(N2CCCN(C3CCN(C4CCOC4)CC3)CC2)n1` (stereo not drawn) [Example 128, N-(Cyclopropylmethyl)-6-{4-[1-(oxolan-3-yl)piperidin-4-yl]-1,4-diazepan-1-yl}pyridine-2-carboxamide], the figure is 100 to 500 nM; as for `Cc1cc(NC(=O)c2cccc(N3CCCN(C4CCN(Cc5ccccc5Cl)CC4)CC3)n2)cc(C)n1` [Example 85, 6-(4-{1-[(2-Chlorophenyl)methyl]piperidin-4-yl}-1,4-diazepan-1-yl)-N-(2,6-dimethylpyridin-4-yl)pyridine-2-carboxamide], 20 to 100 nM.
Consider `Cc1cn[nH]c1-c1cccc(N2CCCN(C3CCN(C(C)C)CC3)CC2)n1` [Example 173, 1-[6-(4-Methyl-1H-pyrazol-3-yl)pyridin-2-yl]-4-[1-(propan-2-yl)piperidin-4-yl]-1,4-diazepane Trihydrochloride], for which the Ki fell in the range of 500 to 1000 nM.
Consider `O=C(NCC(F)(F)F)c1cccc(N2CCCN(C3CCN(Cc4ccccc4Cl)CC3)CC2)n1` [Example 48, 6-(4-{1-[(2-Chlorophenyl)methyl]piperidin-4-yl}-1,4-diazepan-1-yl)-N-(2,2,2-trifluoroethyl)pyridine-2-carboxamide], for which the Ki fell in the range of 100 to 500 nM.
For `CC(C)N1CCC(N2CCCN(c3cccc(C(=O)NCc4nccn4C)n3)CC2)CC1` [Example 37, N-[(1-Methyl-1H-imidazol-2-yl)methyl]-6-{4-[1-(propan-2-yl)piperidin-4-yl]-1,4-diazepan-1-yl}pyridine-2-carboxamide], the Ki was 100 to 500 nM.
The figure for `CC(C)N1CCC(N2CCCN(c3cccc(-c4nnc(C5CC5)o4)n3)CC2)CC1` [Example 172, 1-[6-(5-Cyclopropyl-1,3,4-oxadiazol-2-yl)pyridin-2-yl]-4-[1-(propan-2-yl)piperidin-4-yl]-1,4-diazepane] is 100 to 500 nM; for `[2H]C1([2H])CCN(c2cccc(C(=O)Nc3ccncc3)n2)CCN1C1CCN(C2CCCC2)CC1` [Example 191, 6-[4-(1-Cyclopentylpiperidin-4-yl)-5,5-dihydrogenio-1,4-diazepan-1-yl]-N-(pyridin-4-yl)pyridine-2-carboxamide] it is < 20 nM.
The figure for `c1cc(-c2ncc(C3CC3)[nH]2)nc(N2CCCN(C3CCC(N4CCCC4)CC3)CC2)c1` (stereo not drawn) [Example 255, 1-[6-(4-Cyclopropyl-1H-imidazol-2-yl)pyridin-2-yl]-4-[4-(pyrrolidin-1-yl)cyclohexyl]-1,4-diazepane] is 100 to 500 nM.
For the compound `CC(C)N1CCC(N2CCCN(c3cccc(C(=O)NCCc4ccccn4)n3)CC2)CC1` [Example 46, 6-{4-[1-(Propan-2-yl)piperidin-4-yl]-1,4-diazepan-1-yl}-N-[2-(pyridin-2-yl)ethyl]pyridine-2-carboxamide], the Ki was in the range of 20 to 100 nM.
The figure for `C[C@H](c1ccccc1)N1CCC(N2CCCN(c3cccc(C(=O)NCC4CC4)n3)CC2)CC1` [Example 74, N-(Cyclopropylmethyl)-6-(4-{1-[(1R)-1-phenylethyl]piperidin-4-yl}-1,4-diazepan-1-yl)pyridine-2-carboxamide] is 100 to 500 nM; for `CC(C)N1CCC(N2CCCN(c3cccc(-c4nc(-c5ccccc5)no4)n3)CC2)CC1` [Example 170, 1-[6-(3-Phenyl-1,2,4-oxadiazol-5-yl)pyridin-2-yl]-4-[1-(propan-2-yl)piperidin-4-yl]-1,4-diazepane] it is 100 to 500 nM.
The figure for `CCC(C)N1CCC(N2CCCN(c3cccc(C(=O)NCC4CC4)n3)CC2)CC1` (stereo not drawn) [Example 65, 6-{4-[1-(Butan-2-yl)piperidin-4-yl]-1,4-diazepan-1-yl}-N-(cyclopropylmethyl)pyridine-2-carboxamide] is < 20 nM.
